According to US20240270786A1, “STEROID COMPOUNDS” (Epirium Bio Inc., priority 2022, published 2024):

Tests used:
[1] = Pharmacokinetics: quantitative determination of compounds in mice plasma; type: in vivo, C57BL/6 Mice; details: 10 mg/kg PO single dose, vehicle 10% NMP; for AUC(0-inf) / AUC(0-t) / Cmax / Tmax: C57BL/6, mouse
Protocol: (§1) C57BL/6 Mice, Age 7-9 weeks, body weight range 20-25 g were used. The mice were fasted overnight. Mice were dosed once a day for a single day at 10 mg/kg, 10 mg/kg. 6 time-points were used for whole blood. 10% NMP was used as a vehicle. 9 animals were used per treatment, with three groups of three animals each. Group 1 had time points at 15 and 60 minutes, Group 2 had time points at 30 and 120 minutes, and Group 3 had time points at 90 and 240 minutes. An Oral (PO) route was used. Plasma and brain samples were collected (brain sample collected at terminal time point). Plasma was collected through the centrifugation of whole blood at 10,000 rpm for 10 minutes at 4° C. Samples were stored at −80° C. until processing.
(§2) 1.00 mg/mL in 100% MeOH PP vials (prepared at RT yellow light) at 2-8° C. were used as stock solution. 12.22-50000 ng/mL using 80% MeOH PP vials (prepared at RT yellow light) at 2-8° C. were used as working solution. 0.98-4000 ng/mL (prepared at RT yellow light) was used for the curve range. For Compounds 26, 40, and 50, 1.00 mg/mL of Compound 53 in 100% methanol Ria vials (Prepared at RT yellow light) was used as IS stock solution, and 80 ng/mL of Compound 53 in 80% methanol (Prepared at RT yellow light) was used as IS working solution. For Compound 36, 1.00 mg/mL of Compound 47 in 100% methanol Ria vials (Prepared at RT yellow light) was used as IS stock solution, and 80 ng/mL of Compound 47 in 80% methanol (Prepared at RT yellow light) was used as IS working solution. A linear, 1/×2 fit type was used. The injection volume was 10 μL for Compounds 26 and 36, and 5 μL for Compounds 40 and 50. Mobile Phase A was 0.1% Formic Acid in water at room temperature. Mobile Phase B was 100% methanol at room temperature. R0 wash solution was 80% methanol at room temperature. R3 wash solution was IPA/MeOH/ACN/water (1:1:1:1) at room temperature. The column was Agilent Eclipse 50*2.1 mm 1.8 μm and the instrument was Shimadzu LC-40 UPLC and AB Sciez 6500+ with LCMS002.
Using a pipette, 25 μL of each sample were aliquoted (calibration curve sample, QC samples and blank matrix) to labeled 1.5 ml eppendorf. Using a pipette, 5.0 μL of IS of conc. 80 ng (Cocktail IS) was aliquoted to each standards and samples except Blank. All tubes were mixed on a multi-tube vortex for approximately 30 seconds. 50 μL of 10 mM Sodium bi-carbonate were added. 1 ml of tert-butyl methyl ether (TBME) was added. All tubes were mixed on a multi-tube vortex for approximately 5 minutes then centrifuged for 10 min at 5,000 rpm for Compounds 26 and 36 and at 10,000 rpm for Compounds 40 and 50, 4° C. The sample was kept in methanol containing dry ice for few seconds to freeze the Aqueous layer (flash freeze method). The upper organic layer was poured from the frozen tubes into the labeled 12×75-mm rial vials and evaporated to dryness under nitrogen using Liquid Evaporator (30° C., ˜15 psi, ˜10 mins). 200 μl of reconstitution solution (0.1% Formic Acid: MeOH (20:80 v/v) were added into each tube. Samples were Vortexed for 30 seconds then transferred to amber glass injection vials for injection.
After test item administration, blood samples were collected from individual animals in previously labeled Heparinised blood collection tubes. Blood samples were collected from retro orbital plexus. The time points for collection of blood samples from all the animals are; 0.25, 0.5, 1, 2 and 4 hr. The collected samples were subjected to centrifugation @ 10,000 rpm for 10 minutes at 40° C. for separation of plasma. Thereafter, plasma samples were collected in previously labeled plasma tubes. These were stored at −80° C. until analysis.

[2] = Pharmacokinetics: quantitative determination of compounds in mice brains; type: in vivo, C57BL/6 Mice; details: C57BL/6, mouse, brain, 10 mg/kg PO single dose, vehicle 10% NMP
Protocol: as §1
as §2, with “0.48-2000” for “0.98-4000”
100 mg of brain tissue were weighed, 400 μL of Ice cold PBS was added, and samples were homogenated using polytron homogenizer. Before starting the experiment the blade was cleaned with NS, Methanol, Methanol: Water (50:50) followed by NS. Using a pipette with Methanol-rinsed pipette tips, homogenate 50 μL of each sample (calibration curve sample, QC samples and blank matrix) was aliquoted to labeled 1.5 ml Ependorfs. Using a pipette, 5.0 μL of IS of conc. 80 ng (Cocktail IS) was aliquoted to each standards and samples except Blank. All tubes were mixed on a multi-tube vortex for approximately 30 seconds. 1 ml of tert-butyl methyl ether (TBME) was added. All tubes were mixed on a multi-tube vortex for approximately 5 minutes then centrifuged for 10 min at 5,000 rpm, 4° C. The sample was kept in methanol containing dry ice for few seconds to freeze the Aqueous layer (flash freeze method). The upper organic layer was poured from the frozen tubes into the labeled 12×75-mm rial vials and evaporated to dryness under nitrogen using Liquid Evaporator (30° C., ˜15 psi, ˜10 mins). 200 μl of reconstitution solution (0.1% Formic Acid: MeOH (20:80 v/v) were added into each tube. The samples were vortexed for 30 seconds then transferred to amber glass injection vials for injection.
At the terminal time points, animals were euthanized after blood sample collection. Their skulls were opened and whole brains were separated and collected in previously labeled tubes. The tubes were then immediately transferred into liquid nitrogen container for snap freezing. Later the samples were stored at −80° C.

SMILES	T½ [1]	AUC(0-inf) [1]	AUC(0-t) [1]	Cmax [1]	Tmax [1]	AUC(0-t) [2]	Cmax [2]	Tmax [2]
CN1C(=O)CC[C@@]2(C)C1=CCC1C2[C@@H](O)C[C@@]2(C)C1CC[C@@H]2NC(=O)C1CC1 (stereo partly drawn) [Compound 26, N-((4aR,5S,6aS,7S)-5-hydroxy-1,4a,6a-trimethyl-2-oxo-2,3,4,4a,4b,5,6,6a,7,8,9,9a,9b,10-tetradecahydro-1H-indeno[5,4-f]quinolin-7-yl)cyclopropanecarboxamide]	1.03 h	993 ng·h/mL	930 ng·h/mL	2130 ng/mL	0.25 h	487 ng·h/mL	433 ng/mL	1 h
CC(C)CCNC(=O)C1CCC2C3CC=C4N(C)C(=O)CC[C@]4(C)C3[C@@H](O)C[C@]12C (stereo partly drawn) [Compound 36, (4aR,5S,6aS)-5-hydroxy-N-isopentyl-1,4a,6a-trimethyl-2-oxo-2,3,4,4a,4b,5,6,6a,7,8,9,9a,9b,10-tetradecahydro-1H-indeno[5,4-f]quinoline-7-carboxamide]	1.11 h	1640 ng·h/mL	1500 ng·h/mL	1960 ng/mL	0.25 h	1640 ng·h/mL	1160 ng/mL	1 h
CNC(=O)[C@H]1CCC2C3CC=C4N(C)C(=O)CC[C@]4(C)C3[C@@H](O)C[C@@]21C (stereo partly drawn) [Compound 40, (4aR,5S,6aS)-5-hydroxy-N,1,4a,6a-tetramethyl-2-oxo-2,3,4,4a,4b,5,6,6a,7,8,9,9a,9b,10-tetradecahydro-1H-indeno[5,4-f] quinoline-7-carboxamide]	0.933 h	2430 ng·h/mL	2300 ng·h/mL	2200 ng/mL	0.25 h	2500 ng·h/mL	1680 ng/mL	1 h
